US20130065818A1, “Arylamide Compounds And Compositions And Uses Thereof” (POLYMEDIX, priority 2006, published 2013)
In brackets after ≈: the same amount, converted by molar mass. Where two headings read alike, the source gives them in different places.

Legend:
Format in all cases: cell-based
[1] = system: Staphylococcus epidermidis (Coagulase-negative Staphylococcus) fluoroquinolone-resistant; assay: MIC, 25 ocular isolates, broth microdilution (Example 8)
How it was run: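 Broth microdilution in Mueller-Hinton broth, polypropylene plates, inoculum from 0.5 McFarland suspension diluted 0.05 ml into 5 ml; final test agent 64–0.0625 μg/ml (128–0.125 μg/ml for P. aeruginosa) in 0.01% acetic acid, 0.2% BSA diluent. Incubated 37° C overnight; MIC read visually as lowest concentration inhibiting visible growth.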

[2] = system: P. aeruginosa ATCC 10145; assay: MIC, laboratory strains (Example 8)
[3] = system: K. pneumoniae Lab Strain KP10; assay: MIC, laboratory strains (Example 8)
[4] = system: Ciprofloxacin Susceptible (CS) S. aureus (CSSA); assay: MIC of clinical ocular isolates (Example 1); settings: Staphylococcus aureus; CSSA clinical ocular isolates (n=27)
[5] = system: Ciprofloxacin Resistant (CR) S. aureus (CRSA); assay: MIC of clinical ocular isolates (Example 1); settings: Staphylococcus aureus; CRSA clinical ocular isolates (n=28)
[6] = system: CS S. epidermidis (CSSE); assay: MIC of clinical ocular isolates (Example 1); settings: Staphylococcus epidermidis; CSSE clinical ocular isolates (n=26)
[7] = system: CR S. epidermidis (CRSE); assay: MIC of clinical ocular isolates (Example 1); settings: Staphylococcus epidermidis; CRSE clinical ocular isolates (n=26)
[8] = system: St. pneumoniae (SP); assay: MIC of clinical ocular isolates (Example 1); settings: Streptococcus pneumoniae; SP clinical ocular isolates (n=27)
[9] = system: St. viridans group (SV); assay: MIC of clinical ocular isolates (Example 1); settings: Streptococcus viridans
[10] = system: Moraxella Species (MS); assay: MIC of clinical ocular isolates (Example 1); settings: MS clinical ocular isolates (n=25)
[11] = system: H. influenzae (HI); assay: MIC of clinical ocular isolates (Example 1); settings: Haemophilus influenzae; HI clinical ocular isolates (n=26)
[12] = system: P. aeruginosa (PA); assay: MIC of clinical ocular isolates (Example 1); settings: Pseudomonas aeruginosa; PA clinical ocular isolates (n=26)
[13] = system: Serratia marcescens (SM); assay: MIC of clinical ocular isolates (Example 1); settings: SM clinical ocular isolates (n=27)
[14] = system: Fluoroquinolone-Resistant Methicillin-Resistant Staphylococcus aureus Strain K950; assay: MIC characterization of strain K950; settings: read-out: MIC (Minimum Inhibitory Concentration)
[15] = 25 isolates, Summary of Results, <0.0625 was Replaced with 0.03125
[16] = Staphylococcus epidermidis, 25 ocular isolates, read-out: Median MIC
[17] = Staphylococcus epidermidis, isolate 1—E515, read-out: MIC
[18] = Staphylococcus epidermidis, isolate 2—E514, read-out: MIC
[19] = Staphylococcus epidermidis, isolate 3—E513, read-out: MIC
[20] = Staphylococcus epidermidis, isolate 4—E510, read-out: MIC
[21] = Staphylococcus epidermidis, isolate 5—E509, read-out: MIC
[22] = Staphylococcus epidermidis, isolate 6—E508, read-out: MIC
[23] = Staphylococcus epidermidis, isolate 7—E505, read-out: MIC
[24] = Staphylococcus epidermidis, isolate 8—E503, read-out: MIC
[25] = Staphylococcus epidermidis, isolate 9—E502, read-out: MIC
[26] = Staphylococcus epidermidis, isolate 10—E499, read-out: MIC
[27] = Staphylococcus epidermidis, isolate 11—E498, read-out: MIC
[28] = Staphylococcus epidermidis, isolate 12—E494, read-out: MIC
[29] = Staphylococcus epidermidis, isolate 13—E493, read-out: MIC
[30] = Staphylococcus epidermidis, isolate 14—E485, read-out: MIC
[31] = Staphylococcus epidermidis, isolate 15—E487, read-out: MIC
[32] = Staphylococcus epidermidis, isolate 16—E486, read-out: MIC
[33] = Staphylococcus epidermidis, isolate 17—E480, read-out: MIC
[34] = Staphylococcus epidermidis, isolate 18—E475, read-out: MIC
[35] = Staphylococcus epidermidis, isolate 19—E471, read-out: MIC
[36] = Staphylococcus epidermidis, isolate 20—E458, read-out: MIC
[37] = Staphylococcus epidermidis, isolate 21—E452, read-out: MIC
[38] = Staphylococcus epidermidis, isolate 22—E450, read-out: MIC
[39] = Staphylococcus epidermidis, isolate 23—E440, read-out: MIC
[40] = Staphylococcus epidermidis, isolate 24—E446, read-out: MIC
[41] = Staphylococcus epidermidis, isolate 25—E444, read-out: MIC
[42] = Staphylococcus epidermidis, n=25 per group, read-out: Median MIC
[43] = Staphylococcus epidermidis, 25 isolates, Summary of Results, read-out: MIC50
[44] = Staphylococcus epidermidis, 25 isolates, Summary of Results, read-out: MIC90
[45] = Staphylococcus epidermidis, 25 isolates, Summary of Results, read-out: Median MIC

N=C(N)NCCCCC(=O)Nc1cc(C(F)(F)F)cc(NC(=O)c2cnc(C(=O)Nc3cc(C(F)(F)F)cc(NC(=O)CCCCNC(=N)N)c3SCCN)cn2)c1SCCN [Oligomer 5] was tested, and the MIC50 ([1]; 25 isolates, Row 13) was 0.125 µg/mL (≈ 0.136 µM), the MIC90 ([1]; 25 isolates, Row 22) was 0.25 µg/mL (≈ 0.273 µM) and the “Range of MICs” value [1, 15] was 0.03125 to 0.5 µg/mL. It also gave an MIC [1, 16] of at most 0.25 µg/mL, an MIC [1, 17] of 0.125 µg/mL (≈ 0.136 µM) and an MIC [1, 18] of 0.125 µg/mL (≈ 0.136 µM). For the same compound, the MIC [1, 19] was 0.125 µg/mL (≈ 0.136 µM), the MIC [1, 20] was 0.125 µg/mL (≈ 0.136 µM) and the MIC [1, 21] was 0.125 µg/mL (≈ 0.136 µM). The MIC [1, 22] was 0.125 µg/mL (≈ 0.136 µM), the MIC [1, 23] was 0.125 µg/mL (≈ 0.136 µM) and the MIC [1, 24] was 0.125 µg/mL (≈ 0.136 µM). The MIC [1, 25] was 0.25 µg/mL (≈ 0.273 µM), the MIC [1, 26] was 0.25 µg/mL (≈ 0.273 µM) and the MIC [1, 27] was 0.125 µg/mL (≈ 0.136 µM). It also gave an MIC [1, 28] of 0.125 µg/mL (≈ 0.136 µM), an MIC [1, 29] of 0.125 µg/mL (≈ 0.136 µM) and an MIC [1, 30] of 0.125 µg/mL (≈ 0.136 µM). It also gave an MIC [1, 31] of under 0.0625 µg/mL, an MIC [1, 32] of 0.125 µg/mL (≈ 0.136 µM) and an MIC [1, 33] of 0.125 µg/mL (≈ 0.136 µM). It also gave an MIC [1, 34] of 0.125 µg/mL (≈ 0.136 µM), an MIC [1, 35] of 0.125 µg/mL (≈ 0.136 µM) and an MIC [1, 36] of 0.125 µg/mL (≈ 0.136 µM). For the same compound, the MIC [1, 37] was 0.5 µg/mL (≈ 0.545 µM), the MIC [1, 38] was 0.125 µg/mL (≈ 0.136 µM) and the MIC [1, 39] was 0.125 µg/mL (≈ 0.136 µM). The MIC [1, 40] was under 0.0625 µg/mL, the MIC [1, 41] was 0.25 µg/mL (≈ 0.273 µM) and the MIC [1, 42] was 0.125 µg/mL (≈ 0.136 µM). For the same compound, the MIC50 [1, 43] was 0.125 µg/mL (≈ 0.136 µM), the MIC90 [1, 44] was 0.25 µg/mL (≈ 0.273 µM) and the MIC [1, 45] was 0.125 µg/mL (≈ 0.136 µM). The MIC50 ([1]; n=25 per group) was 0.125 µg/mL (≈ 0.136 µM), the MIC90 ([1]; n=25 per group) was 0.25 µg/mL (≈ 0.273 µM) and the “Range of MICs” value ([1]; n=25 per group) was 0.03125 to 0.5 µg/mL. For the same compound, the MIC [2] was over 100 µg/mL and the MIC [3] was 1.56 µg/mL (≈ 1.7 µM).

N=C(N)NCCCCC(=O)Nc1cc(C(F)(F)F)cc(NC(=O)c2cc(C(=O)Nc3cc(C(F)(F)F)cc(NC(=O)CCCCNC(=N)N)c3SCCN)ncn2)c1SCCN [Oligomer 2] gave an MIC50 [4] of 0.125 µg/mL, an MIC90 [4] of 0.25 µg/mL and an MIC50 [5] of 0.25 µg/mL. The MIC90 [5] was 0.25 µg/mL, the MIC50 [6] was 0.03 µg/mL and the MIC90 [6] was 0.03 µg/mL. The MIC50 [7] was 0.03 µg/mL, the MIC90 [7] was 0.03 µg/mL and the MIC50 [8] was 1 µg/mL. The MIC90 [8] was 2 µg/mL, the MIC50 [9] was 4 µg/mL and the MIC90 [9] was 32 µg/mL. For the same compound, the MIC50 [10] was 0.25 µg/mL, the MIC90 [10] was 0.5 µg/mL and the MIC50 [11] was 8 µg/mL. For the same compound, the MIC90 [11] was 16 µg/mL, the MIC50 [12] was 4 µg/mL and the MIC90 [12] was 8 µg/mL. The MIC50 [13] was 16 µg/mL, the MIC90 [13] was 32 µg/mL and the MIC [14] was 0.25 µg/mL (≈ 0.273 µM).

In the case of N=C(N)NCCCCC(=O)Nc1cc(C(F)(F)F)cc(NC(=O)c2cc(C(=O)Nc3cc(C(F)(F)F)cc(NC(=O)CCCCNC(=N)N)c3O[C@@H]3CCNC3)ncn2)c1O[C@@H]1CCNC1 [Oligomer 4], the MIC, sorted list for MIC50 and MIC90 Determinations (QRSE-A) ([1]; 25 isolates sorted ascending, Row 1-25, <0.0625 was Replaced with 0.03125) is reported as 0.25 µg/mL, the MIC50 ([1]; 25 isolates, Row 13) is reported as 0.125 µg/mL (≈ 0.133 µM) and the MIC90 ([1]; 25 isolates, Row 22) is reported as 0.25 µg/mL (≈ 0.267 µM). The “Range of MICs” value [1, 15] was 0.03125 to 0.25 µg/mL, the MIC [1, 16] was at most 0.25 µg/mL and the MIC [1, 17] was 0.125 µg/mL (≈ 0.133 µM). For the same compound, the MIC [1, 18] was under 0.0625 µg/mL, the MIC [1, 19] was 0.125 µg/mL (≈ 0.133 µM) and the MIC [1, 20] was under 0.0625 µg/mL. It also gave an MIC [1, 21] of 0.125 µg/mL (≈ 0.133 µM), an MIC [1, 22] of 0.125 µg/mL (≈ 0.133 µM) and an MIC [1, 23] of 0.125 µg/mL (≈ 0.133 µM). For the same compound, the MIC [1, 24] was 0.125 µg/mL (≈ 0.133 µM), the MIC [1, 25] was 0.125 µg/mL (≈ 0.133 µM) and the MIC [1, 26] was 0.125 µg/mL (≈ 0.133 µM). It also gave an MIC [1, 27] of 0.125 µg/mL (≈ 0.133 µM), an MIC [1, 28] of under 0.0625 µg/mL and an MIC [1, 29] of 0.125 µg/mL (≈ 0.133 µM). For the same compound, the MIC [1, 30] was 0.125 µg/mL (≈ 0.133 µM), the MIC [1, 31] was 0.125 µg/mL (≈ 0.133 µM) and the MIC [1, 32] was under 0.0625 µg/mL. It also gave an MIC [1, 33] of 0.125 µg/mL (≈ 0.133 µM), an MIC [1, 34] of 0.25 µg/mL (≈ 0.267 µM) and an MIC [1, 35] of 0.125 µg/mL (≈ 0.133 µM). For the same compound, the MIC [1, 36] was 0.125 µg/mL (≈ 0.133 µM), the MIC [1, 37] was 0.25 µg/mL (≈ 0.267 µM) and the MIC [1, 38] was 0.125 µg/mL (≈ 0.133 µM). The MIC [1, 39] was 0.25 µg/mL (≈ 0.267 µM), the MIC [1, 40] was 0.125 µg/mL (≈ 0.133 µM) and the MIC [1, 41] was 0.25 µg/mL (≈ 0.267 µM). It also gave an MIC [1, 42] of 0.125 µg/mL (≈ 0.133 µM), an MIC50 [1, 43] of 0.125 µg/mL (≈ 0.133 µM) and an MIC90 [1, 44] of 0.25 µg/mL (≈ 0.267 µM). For the same compound, the MIC [1, 45] was 0.125 µg/mL (≈ 0.133 µM), the MIC50 ([1]; n=25 per group) was 0.125 µg/mL (≈ 0.133 µM) and the MIC90 ([1]; n=25 per group) was 0.25 µg/mL (≈ 0.267 µM). For the same compound, the “Range of MICs” value ([1]; n=25 per group) was 0.03125 to 0.25 µg/mL, the MIC [2] was 12.5 µg/mL (≈ 13.3 µM) and the MIC [3] was 0.78 µg/mL (≈ 0.833 µM). The MIC [14] was 0.5 µg/mL (≈ 0.534 µM).
